Measurements published in patent US11844777B2, “Methods of treating autoimmune microvascular disorders” (PRIMUS PHARMACEUTICALS, INC., priority 2017, dated 2023).

Experiments:
[1] = cited from earlier work
[2] = test system: streptozotocin-induced diabetic hamster cheek pouch; details: cited from earlier work
[3] = test system: digital ulcers; experiment: randomized, double blind, placebo controlled clinical trial of diosmin on digital ulcers; assay type: in vivo, human
Experimental: To evaluate the effect of diosmin on Raynaud's and digital ulcers, a randomized, double blind, placebo controlled clinical trial was conducted. In this trial, subjects were randomized to receive either 600 mg of diosmin or matching placebo twice daily. The trial recorded improvement/healing of ulcers. Subjects with ulcers who were not on active ulcer therapy were required to have at least one stable or worsening digital ulcer for at least one month and subjects receiving ulcer therapy were required to have at least one stable or worsening ulcer on stable therapy for at least two months and therapy was required to remain constant for the duration of the trial.

[4] = test system: leukocyte and endothelial cell adhesion molecules; details: variety of ischemia/reperfusion models; cited from earlier work
[5] = test system: hamster cheek pouch; details: pretreatment with 2, 20, 80 and 160 mg/kg/d; ischemia/reperfusion; cited from earlier work
[6] = test system: rabbit ear veins; details: 300 mg/kg/d from 7 days before to 4 days after sclerotherapy; p<0.001; cited from earlier work

## COc1ccc(-c2cc(=O)c3c(O)cc(O[C@@H]4O[C@H](CO[C@@H]5O[C@@H](C)[C@H](O)[C@@H](O)[C@H]5O)[C@@H](O)[C@H](O)[C@H]4O)cc3o2)cc1O [diosmin, (7-[[6-O-(6-Deoxy-α-L-mannopyranosyl)-β-D-glucopyranosyl]oxy]-5-hydroxy-2-(3-hydroxy-4-methoxyphenyl)-4H-1-benzopyran-4-one)]
[1]
  form found in blood after oral ingestion: Diosmetin
[2]; after reperfusion following 30 minutes of ischemia
  number of leukocytes adhering to the endothelium after reperfusion: deceased as did the number of leukocytes adhering to the endothelium
[2]; pretreatment with diosmin, diabetic hamster cheek pouch
  number of capillary leaks induced by each of the test articles, bradykinin, and LTB4: significantly reduced
[3]; 600 mg diosmin twice daily, Week 4, all digital ulcers (including 9 ulcers in 4 non-scleroderma subjects)
  Number of New Ulcers Appearing between Baseline and Week 4: 14
[3]; 600 mg twice daily, Week 4, healed/total ulcers, p 0.1251 vs placebo
  Number of Ulcers Healed at Week 4 Relative to Baseline: 18/43
[3]; 600 mg twice daily, Week 4, improved/total ulcers, p 0.0905 vs placebo
  Number with >= 50% Improvement at Week 4 Relative to Baseline: 23/43
[3]; 600 mg twice daily, Week 4, p 0.0905 vs placebo
  % with >= 50% Improvement at Week 4 Relative to Baseline: (53.5%)
[3]; 600 mg twice daily, Week 4, p 0.1251 vs placebo
  % of Ulcers Healed at Week 4 Relative to Baseline: (41.9%)
[3]; 600 mg twice daily, Week 8, healed/total ulcers, p 0.0113 vs placebo
  Number of Ulcers Healed at Week 8 Relative to Baseline: 31/42
[3]; 600 mg twice daily, Week 8, healed/total ulcers, p 0.0600 vs placebo
  Number of Ulcers Healed at Week 8 Relative to Week 4: 18/37
[3]; 600 mg twice daily, Week 8, improved/total ulcers, p 0.0018 vs placebo
  Number with >= 50% Improvement at Week 8 Relative to Baseline: 39/42
[3]; 600 mg twice daily, Week 8, improved/total ulcers, p 0.0207 vs placebo
  Number with >= 50% Improvement at Week 8 Relative to Week 4: 25/37
[3]; 600 mg twice daily, Week 8, p 0.0018 vs placebo
  % with >= 50% Improvement at Week 8 Relative to Baseline: (92.9%)
[3]; 600 mg twice daily, Week 8, p 0.0113 vs placebo
  % of Ulcers Healed at Week 8 Relative to Baseline: (73.8%)
[3]; 600 mg twice daily, Week 8, p 0.0207 vs placebo
  % with >= 50% Improvement at Week 8 Relative to Week 4: (67.6%)
[3]; 600 mg twice daily, Week 8, p 0.0600 vs placebo
  % of Ulcers Healed at Week 8 Relative to Week 4: (48.6%)
[4]
  overexpression of leukocyte and endothelial cell adhesion molecules: inhibit
[5]
  arteriolar vasodilation, reduction in flow velocity and decrease in functional capillary density: reversed all these changes towards normal in a dose dependent manner
[6]
  functional capillary density: preserved
  increase in venous and arteriolar diameter: prevented
  number of adherent leukocytes: reduced
  number of capillary leakage sites: reduced
  perivenous edema: reduced
